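How tested: cells in 96-well plates exposed to compound for 48 hours at five concentrations. At the GI50, growth is halved.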 The source made the active and inactive calls. Rule as the data show it: active = GI50 up to about 1.1 µM and inactive = higher.
How the values were obtained:
Assay in all cases: NCI-60 cell line screen, 48 h
CCRF-CEM = test system: CCRF-CEM
PC-3 = test system: PC-3
HCT-15 = test system: HCT-15
HOP-62 = test system: HOP-62
SK-MEL-2 = test system: SK-MEL-2
SNB-19 = test system: SNB-19
SN12C = test system: SN12C
Hs-578T = test system: Hs-578T
MDA-MB-231 = test system: MDA-MB-231
UACC-62 = test system: UACC-62
HL-60 = test system: HL-60
T47D = test system: T47D
786-0 = test system: 786-0
TK-10 = test system: TK-10
OVCAR-5 = test system: OVCAR-5
NCI-H522 = test system: NCI-H522
HOP-92 = test system: HOP-92
CAKI-1 = test system: CAKI-1
SNB-75 = test system: SNB-75
SF-268 = test system: SF-268

Row | Compound | GI50 (CCRF-CEM) | GI50 (PC-3) | GI50 (HCT-15) | GI50 (HOP-62) | GI50 (SK-MEL-2) | GI50 (SNB-19) | GI50 (SN12C) | GI50 (Hs-578T) | GI50 (MDA-MB-231) | GI50 (UACC-62) | GI50 (HL-60) | GI50 (T47D) | GI50 (786-0) | GI50 (TK-10) | GI50 (OVCAR-5) | GI50 (NCI-H522) | GI50 (HOP-92) | GI50 (CAKI-1) | GI50 (SNB-75) | GI50 (SF-268)
1 | Cc1cc(S(=O)(=O)Nc2nnc3ccccn23)c(S)cc1Cl | > 10 µM (inactive) | > 100 µM (inactive) | > 100 µM | 56.6 µM (inactive) | 79.4 µM (inactive) | > 100 µM (inactive) | > 100 µM (inactive) | > 100 µM (inactive) | > 100 µM (inactive) | > 100 µM (inactive) | > 100 µM (inactive) | > 100 µM (inactive) | > 100 µM (inactive) | > 100 µM (inactive) | > 100 µM (inactive) | > 100 µM (inactive) |  |  |  | 
2 | CC(CO)(CO)Nc1ncnc2ccccc12 | > 100 µM (inactive) | > 100 µM (inactive) | > 100 µM | > 100 µM (inactive) | > 100 µM (inactive) | > 100 µM (inactive) | > 100 µM (inactive) | > 100 µM (inactive) | > 100 µM (inactive) | > 100 µM (inactive) |  | > 100 µM (inactive) | > 100 µM (inactive) | > 100 µM (inactive) | > 100 µM (inactive) | > 100 µM (inactive) | > 100 µM (inactive) | > 100 µM (inactive) | > 100 µM (inactive) | > 100 µM (inactive)
3 | COc1ccc2c(c1)c1c(C)c3cnccc3c(C)c1n2CCCN |  | 0.0715 µM (active) | 0.0925 µM | 0.444 µM (active) | 0.401 µM (active) | 0.29 µM (active) | 0.234 µM (active) | 0.277 µM (active) | 0.145 µM (active) | 0.41 µM (active) |  | 0.284 µM (active) | 0.0288 µM (active) | 0.248 µM (active) | 0.431 µM (active) | 0.313 µM (active) | 0.0968 µM (active) |  | 0.378 µM (active) | 
4 | CC1(C)CC(=O)c2c(nc3c(ccc4ccccc43)c2-c2ccc(NC(=O)CCCCCCCCC(=O)Nc3ccc(-c4c5c(nc6c4ccc4ccccc46)CC(C)(C)CC5=O)cc3)cc2)C1 | > 100 µM (inactive) | > 100 µM (inactive) |  | > 100 µM (inactive) | > 100 µM (inactive) | > 100 µM (inactive) | > 100 µM (inactive) | > 100 µM (inactive) | > 100 µM (inactive) |  | > 100 µM (inactive) | > 100 µM (inactive) | > 100 µM (inactive) | > 100 µM (inactive) | > 100 µM (inactive) | > 100 µM (inactive) |  | > 100 µM (inactive) | > 100 µM (inactive) | > 100 µM (inactive)
5 | CCOC(=O)C1(C/C=C\CBr)CCCCCCC1=O (stereo not given) | > 100 µM (inactive) | > 100 µM (inactive) | > 100 µM | > 100 µM (inactive) | > 100 µM (inactive) | > 100 µM (inactive) | > 100 µM (inactive) | > 100 µM (inactive) | > 100 µM (inactive) | > 100 µM (inactive) | > 100 µM (inactive) | > 100 µM (inactive) | > 100 µM (inactive) | 91 µM (inactive) | > 100 µM (inactive) | > 100 µM (inactive) |  | > 100 µM (inactive) | > 100 µM (inactive) | > 100 µM (inactive)
6 | O=C1N/C(=N/N=C\c2ccccc2)N/C1=C/c1ccc(Cl)cc1 |  | 18.4 µM (inactive) | 15.3 µM | 17.1 µM (inactive) | 26.5 µM (inactive) | 15.6 µM (inactive) | 23.2 µM (inactive) | 20.5 µM (inactive) | 29.3 µM (inactive) |  |  | 21 µM (inactive) | 29.8 µM (inactive) | 42.3 µM (inactive) | 26.4 µM (inactive) | 18.5 µM (inactive) |  | 33.2 µM (inactive) | 18.7 µM (inactive) | 22.2 µM (inactive)
7 | CCOC(=O)c1ccc2c(=O)n3c(C(=O)OCC)ccc3c(=O)n12 | > 100 µM (inactive) | > 100 µM (inactive) | > 100 µM | > 100 µM (inactive) | > 100 µM (inactive) | > 100 µM (inactive) | > 100 µM (inactive) | > 100 µM (inactive) | > 100 µM (inactive) | > 100 µM (inactive) | > 100 µM (inactive) | > 100 µM (inactive) | > 100 µM (inactive) | > 100 µM (inactive) | > 100 µM (inactive) | 60.7 µM (inactive) |  | > 100 µM (inactive) | 44.5 µM (inactive) | > 100 µM (inactive)
8 | O=C(NN=C1CCCCC1)NN=C1CCCCC1 | > 100 µM (inactive) | > 100 µM (inactive) | > 100 µM | > 100 µM (inactive) |  | > 100 µM (inactive) | > 100 µM (inactive) | > 100 µM (inactive) | > 100 µM (inactive) | > 100 µM (inactive) |  | > 100 µM (inactive) |  | > 100 µM (inactive) | > 100 µM (inactive) |  |  | > 100 µM (inactive) | > 100 µM (inactive) | 
9 | Cc1ccc(C2C(C(=O)C(C)(C)C)N2S(=O)(=O)c2ccc(C)cc2)cc1 (stereo not given) | 22.6 µM (inactive) | 29.7 µM (inactive) | 22.3 µM | 33.5 µM (inactive) | 46.6 µM (inactive) | 22.5 µM (inactive) | 19.8 µM (inactive) | 28.7 µM (inactive) | 19.8 µM (inactive) | 15.8 µM (inactive) |  | 21 µM (inactive) |  | 28.6 µM (inactive) | 21.3 µM (inactive) | 16.1 µM (inactive) |  | 26.4 µM (inactive) | 19.5 µM (inactive) | 30.5 µM (inactive)
10 | C=CCN(c1cc(OC)c2[nH]c(C(=O)O)c(C)c2c1[N+](=O)[O-])S(C)(=O)=O | > 100 µM (inactive) | > 100 µM (inactive) | > 100 µM | > 100 µM (inactive) | > 100 µM (inactive) | > 100 µM (inactive) | 54.3 µM (inactive) | > 100 µM (inactive) | > 100 µM (inactive) | > 100 µM (inactive) | > 100 µM (inactive) | > 100 µM (inactive) | > 100 µM (inactive) | > 100 µM (inactive) | > 100 µM (inactive) | 10 µM (inactive) |  | > 100 µM (inactive) | > 100 µM (inactive) | > 100 µM (inactive)
11 | O=C(OCc1c(-c2ccccc2)nn(-c2ccccc2)c1COC(=O)Oc1ccccc1)Oc1ccccc1 | > 100 µM (inactive) | > 100 µM (inactive) | > 100 µM | > 100 µM (inactive) |  | > 100 µM (inactive) | > 100 µM (inactive) | > 100 µM (inactive) | > 100 µM (inactive) | > 100 µM (inactive) | > 100 µM (inactive) | > 100 µM (inactive) | > 100 µM (inactive) | > 100 µM (inactive) | > 100 µM (inactive) | > 100 µM (inactive) | > 100 µM (inactive) | > 100 µM (inactive) | > 100 µM (inactive) | > 100 µM (inactive)
12 | COC1/C=C/C(C)C(OC)CC(O)/C=C/C(C)C(C(C)C(OC)C(C)CCC(=O)C(C)C(C/C=C/N(C)C=O)OC)OC(=O)/C=C/C=C(\C)CC(OC)C(OC)C2=CC(=O)O[C@@H](C(C)C(OC)C1)[C@H]2O (stereo not given in full) | 0.0499 µM (active) | 0.0337 µM (active) | 0.015 µM | 0.0324 µM (active) |  | 0.0519 µM (active) | 0.0498 µM (active) | 0.0307 µM (active) | 0.0366 µM (active) | 0.0571 µM (active) | 0.0299 µM (active) | 0.0571 µM (active) | 0.0442 µM (active) | 0.0548 µM (active) | 0.0479 µM (active) | 0.0295 µM (active) | 0.0327 µM (active) | 0.0148 µM (active) | 0.034 µM (active) | 0.0442 µM (active)
13 | O=P1(c2ccccc2)C2=CCC=CC2C(c2ccccc2)N1Cc1ccccc1 (stereo not given) | 15.5 µM (inactive) | 13.4 µM (inactive) | 14.5 µM | 19.6 µM (inactive) | 15.5 µM (inactive) | 22.4 µM (inactive) | 15.6 µM (inactive) | 19 µM (inactive) | 15.9 µM (inactive) | 8.63 µM (inactive) | 20.4 µM (inactive) | 16.3 µM (inactive) | 15.5 µM (inactive) | 20 µM (inactive) | > 100 µM (inactive) | 11.4 µM (inactive) | 12.4 µM (inactive) | 13.7 µM (inactive) |  | 14.7 µM (inactive)
14 | CSc1nc(C)c2c(n1)SCC2 | > 10 µM (inactive) | > 10 µM (inactive) | > 10 µM | > 10 µM (inactive) |  | > 10 µM (inactive) | > 10 µM (inactive) | 2.52 µM (inactive) | > 10 µM (inactive) | > 10 µM (inactive) | > 10 µM (inactive) | > 10 µM (inactive) | > 10 µM (inactive) | > 10 µM (inactive) | > 10 µM (inactive) |  | > 10 µM (inactive) | > 10 µM (inactive) | > 10 µM (inactive) | > 10 µM (inactive)
15 | Cc1sc2nc3n(c(=O)c2c1C)N=CN(c1ccc(F)cc1)C3 | > 100 µM (inactive) | > 100 µM (inactive) | > 100 µM | 23.8 µM (inactive) | > 100 µM (inactive) | 38 µM (inactive) | 32.9 µM (inactive) | 22.4 µM (inactive) | 59 µM (inactive) | > 100 µM (inactive) |  | > 100 µM (inactive) | 19.5 µM (inactive) | > 100 µM (inactive) | > 100 µM (inactive) | 69.3 µM (inactive) | 24.2 µM (inactive) | > 100 µM (inactive) | 42.4 µM (inactive) | 81.7 µM (inactive)
16 | Cc1ccc(OCC2OC(n3cnc4nc(N)nc(Cl)c43)CC2Oc2ccc(C)cc2)cc1 (stereo not given) | 45.1 µM (inactive) | 21.9 µM (inactive) | 14.9 µM | 22.3 µM (inactive) | 17.7 µM (inactive) | 11.8 µM (inactive) | 15.8 µM (inactive) | 15.4 µM (inactive) | 34.6 µM (inactive) | 27.5 µM (inactive) |  | 14.9 µM (inactive) | 22.1 µM (inactive) | 31.1 µM (inactive) | 18.3 µM (inactive) | 15.7 µM (inactive) | 17.3 µM (inactive) | 4.08 µM (inactive) | 11 µM (inactive) | 15.4 µM (inactive)

— ChEMBL document CHEMBL1201862, “PubChem BioAssay data set” (2004)
